PubChem BioAssay AID1963826 (Molecular Pharmacology Branch, DTP, NCI, 2024)

Test system: 926638-142-R-J1-PDC complex spheroid viability
Test: Anticancer human tumor 926638-142-R-J1-PDC patient-derived endometrial carcinoma cell line growth inhibition [POLQ]
Conditions: for IC50: curve of first compound; for viability, T/C: stronger effect = lower value
Method in brief: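 PDC + HUVEC + MSC complex spheroids; POLQ inhibitors ± partner drugs; top conc. at/near clinical Cmax, else 10 microM (SN-38 1 microM), half-log dilutions; 37 degrees C, 5% CO2.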

[1] = second compound 0.0316 µM, first compound 0.00316 µM
[2] = second compound 0.0316 µM, first compound 0.01 µM
[3] = second compound 0.0316 µM, first compound 0.0316 µM
[4] = second compound 0.0316 µM, first compound 0.1 µM
[5] = second compound 0.1 µM, first compound 0.00316 µM
[6] = second compound 0.1 µM, first compound 0.01 µM
[7] = second compound 0.1 µM, first compound 0.0316 µM
[8] = second compound 0.1 µM, first compound 0.1 µM
[9] = second compound 0.316 µM, first compound 0.00316 µM
[10] = second compound 0.316 µM, first compound 0.01 µM
[11] = second compound 0.316 µM, first compound 0.0316 µM
[12] = second compound 0.316 µM, first compound 0.1 µM
[13] = second compound 1 µM, first compound 0.00316 µM
[14] = second compound 1 µM, first compound 0.01 µM
[15] = second compound 1 µM, first compound 0.0316 µM
[16] = second compound 1 µM, first compound 0.1 µM
[17] = second compound 3.16 µM, first compound 0.00316 µM
[18] = second compound 3.16 µM, first compound 0.01 µM
[19] = second compound 3.16 µM, first compound 0.0316 µM
[20] = second compound 3.16 µM, first compound 0.1 µM
[21] = second compound 10 µM, first compound 0.00316 µM
[22] = second compound 10 µM, first compound 0.01 µM
[23] = second compound 10 µM, first compound 0.0316 µM
[24] = second compound 10 µM, first compound 0.1 µM
[25] = second compound 0.0316 µM, first compound 0.316 µM
[26] = second compound 0.0316 µM, first compound 1 µM
[27] = second compound 0.0316 µM, first compound 3.16 µM
[28] = second compound 0.0316 µM, first compound 10 µM
[29] = second compound 0.1 µM, first compound 0.316 µM
[30] = second compound 0.1 µM, first compound 1 µM
[31] = second compound 0.1 µM, first compound 3.16 µM
[32] = second compound 0.1 µM, first compound 10 µM
[33] = second compound 0.316 µM, first compound 0.316 µM
[34] = second compound 0.316 µM, first compound 1 µM
[35] = second compound 0.316 µM, first compound 3.16 µM
[36] = second compound 0.316 µM, first compound 10 µM
[37] = second compound 1 µM, first compound 0.316 µM
[38] = second compound 1 µM, first compound 1 µM
[39] = second compound 1 µM, first compound 3.16 µM
[40] = second compound 1 µM, first compound 10 µM
[41] = second compound 3.16 µM, first compound 0.316 µM
[42] = second compound 3.16 µM, first compound 1 µM
[43] = second compound 3.16 µM, first compound 3.16 µM
[44] = second compound 3.16 µM, first compound 10 µM
[45] = second compound 10 µM, first compound 0.316 µM
[46] = second compound 10 µM, first compound 1 µM
[47] = second compound 10 µM, first compound 3.16 µM
[48] = second compound 10 µM, first compound 10 µM
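Note: spheroids exposed to drugs for one week before readout.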
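Throughout, for viability, T/C: percent viability relative to DMSO vehicle control wells set as 100%.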

Compound: Cn1ncnc1[C@H]1c2n[nH]c(=O)c3cc(F)cc(c23)N[C@@H]1c1ccc(F)cc1 + Nc1ccc(C#CCN(C(=O)Cc2ncc(C(F)(F)F)cc2C(F)(F)F)c2ccc(F)cc2)nn1
- IC50 (second compound 0.0316 µM): > 100 nM
- IC50 (second compound 0.1 µM): > 100 nM
- IC50 (second compound 0.316 µM): > 100 nM
- IC50 (second compound 1 µM): > 100 nM
- IC50 (second compound 3.16 µM): > 100 nM
- IC50 (second compound 10 µM): > 100 nM
- viability, T/C (second compound 0.0316 µM, first compound 0.000316 µM): 117%
- viability, T/C (second compound 0.0316 µM, first compound 0.001 µM): 89.7%
- viability, T/C [1]: 99.6%
- viability, T/C [2]: 75.7%
- viability, T/C [3]: 69.8%
- viability, T/C [4]: 74.5%
- viability, T/C (second compound 0.1 µM, first compound 0.000316 µM): 123%
- viability, T/C (second compound 0.1 µM, first compound 0.001 µM): 90.1%
- viability, T/C [5]: 101%
- viability, T/C [6]: 78%
- viability, T/C [7]: 79.8%
- viability, T/C [8]: 68.5%
- viability, T/C (second compound 0.316 µM, first compound 0.000316 µM): 91.9%
- viability, T/C (second compound 0.316 µM, first compound 0.001 µM): 98.5%
- viability, T/C [9]: 83.6%
- viability, T/C [10]: 84%
- viability, T/C [11]: 84.9%
- viability, T/C [12]: 66.2%
- viability, T/C (second compound 1 µM, first compound 0.000316 µM): 108%
- viability, T/C (second compound 1 µM, first compound 0.001 µM): 96.7%
- viability, T/C [13]: 75.6%
- viability, T/C [14]: 83.2%
- viability, T/C [15]: 70.4%
- viability, T/C [16]: 80.5%
- viability, T/C (second compound 3.16 µM, first compound 0.000316 µM): 82.3%
- viability, T/C (second compound 3.16 µM, first compound 0.001 µM): 96.3%
- viability, T/C [17]: 92.2%
- viability, T/C [18]: 92.4%
- viability, T/C [19]: 82.9%
- viability, T/C [20]: 71.2%
- viability, T/C (second compound 10 µM, first compound 0.000316 µM): 94.3%
- viability, T/C (second compound 10 µM, first compound 0.001 µM): 99.2%
- viability, T/C [21]: 78.7%
- viability, T/C [22]: 74%
- viability, T/C [23]: 81.9%
- viability, T/C [24]: 75.7%

Compound: COc1cc2cc(C(=O)CCC(=O)O)sc2cc1OC + Cc1cccc(N(C)C(=O)C2C(O)CCN2c2nc(C)cc(C(F)(F)F)c2C#N)c1
- IC50 (second compound 0.0316 µM): > 10000 nM
- IC50 (second compound 0.1 µM): > 10000 nM
- IC50 (second compound 0.316 µM): > 10000 nM
- IC50 (second compound 1 µM): > 10000 nM
- IC50 (second compound 3.16 µM): > 10000 nM
- IC50 (second compound 10 µM): > 10000 nM
- viability, T/C [3]: 101%
- viability, T/C [4]: 92.9%
- viability, T/C [25]: 110%
- viability, T/C [26]: 96.2%
- viability, T/C [27]: 98.3%
- viability, T/C [28]: 77.4%
- viability, T/C [7]: 104%
- viability, T/C [8]: 98.4%
- viability, T/C [29]: 99.7%
- viability, T/C [30]: 87.1%
- viability, T/C [31]: 83.2%
- viability, T/C [32]: 80.3%
- viability, T/C [11]: 119%
- viability, T/C [12]: 115%
- viability, T/C [33]: 109%
- viability, T/C [34]: 84.4%
- viability, T/C [35]: 98.2%
- viability, T/C [36]: 88.7%
- viability, T/C [15]: 99.8%
- viability, T/C [16]: 111%
- viability, T/C [37]: 76.9%
- viability, T/C [38]: 85.8%
- viability, T/C [39]: 94%
- viability, T/C [40]: 90.1%
- viability, T/C [19]: 79.5%
- viability, T/C [20]: 95.5%
- viability, T/C [41]: 99.5%
- viability, T/C [42]: 76.5%
- viability, T/C [43]: 110%
- viability, T/C [44]: 94.6%
- viability, T/C [23]: 79.5%
- viability, T/C [24]: 95.7%
- viability, T/C [45]: 94.5%
- viability, T/C [46]: 87.2%
- viability, T/C [47]: 104%
- viability, T/C [48]: 79.9%

Compound: COc1cccc(OCCCN)c1-c1cc(Nc2cnc(C#N)cn2)n[nH]1 + Cc1cccc(N(C)C(=O)C2C(O)CCN2c2nc(C)cc(C(F)(F)F)c2C#N)c1
- IC50 (second compound 0.0316 µM): 56.8 nM
- IC50 (second compound 0.1 µM): 59.4 nM
- IC50 (second compound 0.316 µM): 47.7 nM
- IC50 (second compound 1 µM): 50.4 nM
- IC50 (second compound 3.16 µM): 108 nM
- IC50 (second compound 10 µM): 29 nM
- viability, T/C [1]: 99.5%
- viability, T/C [2]: 72.9%
- viability, T/C [3]: 51.1%
- viability, T/C [4]: 49.4%
- viability, T/C [25]: 39.5%
- viability, T/C [26]: 36%
- viability, T/C [5]: 102%
- viability, T/C [6]: 81.8%
- viability, T/C [7]: 54.2%
- viability, T/C [8]: 47.2%
- viability, T/C [29]: 46.1%
- viability, T/C [30]: 37.8%
- viability, T/C [9]: 99.3%
- viability, T/C [10]: 61.6%
- viability, T/C [11]: 59.7%
- viability, T/C [12]: 43.6%
- viability, T/C [33]: 44.1%
- viability, T/C [34]: 30.4%
- viability, T/C [13]: 96.6%
- viability, T/C [14]: 79.2%
- viability, T/C [15]: 53.5%
- viability, T/C [16]: 43.3%
- viability, T/C [37]: 49.2%
- viability, T/C [38]: 34.3%
- viability, T/C [17]: 89.4%
- viability, T/C [18]: 65.9%
- viability, T/C [19]: 62.1%
- viability, T/C [20]: 49.2%
- viability, T/C [41]: 47.5%
- viability, T/C [42]: 33.7%
- viability, T/C [21]: 83.5%
- viability, T/C [22]: 80.9%
- viability, T/C [23]: 47%
- viability, T/C [24]: 40.2%
- viability, T/C [45]: 38.6%
- viability, T/C [46]: 27.3%

Compound: CC1COCCN1c1cc(-c2ccnn2C)c2ccnc(-c3ccn[nH]3)c2n1 (stereo not drawn) + COC1C(OC(N)=O)C(O)C(Oc2ccc3c(O)c(NC(=O)c4ccc(O)c(CC=C(C)C)c4)c(=O)oc3c2C)OC1(C)C
- IC50 (second compound 0.0316 µM): 455 nM
- IC50 (second compound 0.1 µM): 403 nM
- IC50 (second compound 0.316 µM): 517 nM
- IC50 (second compound 1 µM): 531 nM
- IC50 (second compound 3.16 µM): 493 nM
- IC50 (second compound 10 µM): 558 nM
- viability, T/C [3]: 111%
- viability, T/C [4]: 89.4%
- viability, T/C [25]: 58.2%
- viability, T/C [26]: 32.8%
- viability, T/C [27]: 12.9%
- viability, T/C [28]: 9.13%
- viability, T/C [7]: 89.4%
- viability, T/C [8]: 81.5%
- viability, T/C [29]: 53.2%
- viability, T/C [30]: 30.9%
- viability, T/C [31]: 11.5%
- viability, T/C [32]: 7.32%
- viability, T/C [11]: 107%
- viability, T/C [12]: 91.6%
- viability, T/C [33]: 68.8%
- viability, T/C [34]: 25.9%
- viability, T/C [35]: 13.6%
- viability, T/C [36]: 7.15%
- viability, T/C [15]: 96.3%
- viability, T/C [16]: 92.5%
- viability, T/C [37]: 67.6%
- viability, T/C [38]: 28.3%
- viability, T/C [39]: 11.3%
- viability, T/C [40]: 7.92%
- viability, T/C [19]: 90.6%
- viability, T/C [20]: 80.3%
- viability, T/C [41]: 64.5%
- viability, T/C [42]: 28.3%
- viability, T/C [43]: 15.1%
- viability, T/C [44]: 8.17%
- viability, T/C [23]: 91.5%
- viability, T/C [24]: 87.6%
- viability, T/C [45]: 66.8%
- viability, T/C [46]: 32.6%
- viability, T/C [47]: 13.8%
- viability, T/C [48]: 9.27%
